Source: US20250002450A1, “CATIONIC STEROID COMPOUNDS, METHOD OF OBTAINING THEREOF, FORMULATIONS COMPRISING THEREOF AND THEIR USES” (UNIVERSIDADE DO PORTO, priority 2021, published 2025)
In brackets after ≈: the same amount, converted by molar mass. Read-outs that look alike come from different tables or passages of the source.

Tests used:
[1] = tested on: C. albicans ATCC 10231; experiment: Mitochondrial dehydrogenases activity, MTT reduction assay; format: cell-based, Candida albicans; conditions: 2 h
Protocol: In order to determine whether compound 1 could also affect mitochondrial function, MTT reduction assay was performed. In this assay, tetrazolium salts are reduced to purple formazan derivatives by mitochondrial dehydrogenases, which can be measured spectrophotometrically and reported to mitochondrial activity and, indirectly, to cell viability. In this assay, cells were exposed to the test compounds for 2 h ([FIG. 11]). […] An increase in reactive oxygen species (ROS) has been linked to azoles activity: even though their primary mode of action is the inhibition of ergosterol synthesis, they also induce accumulation of ROS, which enhances their antifungal activity and translates into an increase in mitochondrial activity at inhibitory concentrations. […] Mitochondrial dehydrogenase activity was evaluated by the MTT assay, as previously described, with some modifications. Cell suspensions of C. albicans ATCC 10231 were prepared in the same manner as described above and, after overnight incubation at 36° C., were centrifuged at 3500 rpm for 15 min, the supernatant was removed, and the cells were carefully resuspended in 2 mL of RPMI. Test conditions and controls were the same as described above, but the time of exposure to the test compounds was 2 h. After the exposure time, cell suspensions were centrifuged at 3500 rpm for 10 min, the supernatant was removed, and 500 μL of MTT solution (0.5 mg/mL in RPMI, at 35° C.) (Thiazolyl Blue Tetrazolium Bromide, Alfa Aesar, Ward Hill, MA, USA) were added. After a 1 h incubation at 35° C., the insoluble formazan product resulting from the conversion of MTT by mitochondrial dehydrogenases of metabolically active cells was solubilized with 300 μL of DMSO. 100 μL of each sample were transferred in duplicate to a microtiter plate and the extent of the reduction of MTT to formazan was quantified by measuring the absorbance at 570 nm. Three independent assays were performed in duplicate, and the results are expressed as percentage of MTT reduction, using the untreated cells as control.

[2] = tested on: A. fumigatus C111; experiment: Antifungal MIC/MLC (broth microdilution); format: cell-based, Aspergillus fumigatus; conditions: A. fumigatus C111, resistant to azoles
Protocol: (§1) The antifungal activity of compound 1 was evaluated for a wide range of fungal species, covering yeasts and filamentous fungi, including dermatophytes. […] This antimicrobial effect was fungicidal, with minimal lethal concentrations (MLC) being equal to, or one or two-fold higher than the respective MIC. Twenty-three fungal strains were used in this study, including reference strains and clinical isolates of yeasts and filamentous fungi. Yeast strains included reference strains (ATCC—American Type Culture Collection and CECT—Colección Española de Cultivos Tipo) and clinical isolates: C. albicans ATCC 10231, Candida krusei ATCC 6258, C. albicans H37, C. albicans FF172, C. albicans FF176, C. albicans DSY294, C. albicans DSY296, C. glabrata DSY562, C. glabrata DSY565 and Cryptococcus neoformans CECT 1078. Filamentous fungi included Aspergillus fumigatus ATCC 240305, A. fumigatus C111, A. niger ATCC 16404, A. flavus F44, Fusarium solani FF125, F. oxysporum FF115, and dermatophytes Trichophyton rubrum FF5, T. mentagrophytes FF7, Microscoporum canis FF1 and Nannizzia gypsea FF3 (formerly Microsporum gypseum) and a species of genera Mucor, Lichetheimia and Scedosporium. Saprolegnia parasitica CBS 223.65, a reference strain of an oomycete fish pathogen, was also included. All microorganisms were kept in Sabouraud Dextrose Broth (SDB: BioMérieux, Marcy L'Etoile, France) plus glycerol (20%) at −80° C. The strains were kept in Sabouraud Dextrose Agar (SDA: BioMérieux, Marcy L'Etoile, France) slants and were sub-cultured in SDA before each test. S. parasitica was kept in Corn Meal Agar plates (CMA: BBL™ Corn Meal Agar, BD, Le Pont-de-Claix, France) and was sub-cultured in CMA before each experiment. C. albicans H37, was kindly provided by Cidilia Pina Vaz (CHSJ, Porto, Portugal) and C. albicans DSY294, C. albicans DSY296, C. glabrata DSY562, C. glabrata DSY565 were kindly provided by D. Sanglard (University of Lausanne, Switzerland). A stock solution of compound 1 (10 mg/mL), was prepared in dimethyl sulfoxide (DMSO 99%: Alfa Aesar, Kandel, Germany), kept at −20 degrees C., and freshly diluted in the appropriate culture media before each assay. In all experiments, in-test concentrations of DMSO were kept below 2%. Fluconazole (Alfa Aesar, Ward Hill, MA, USA) was tested as commercial antifungal.
(§2) Antifungal activity was evaluated by determining the MIC of compound 1 by the broth microdilution method, according to CLSI guidelines (reference documents M27-A3 for yeasts and M38-A2 for filamentous fungi). […] The minimal lethal concentration (MLC) was determined by spreading 20 μL of culture collected from wells showing no visible growth on SDA plates. The MLC was determined as the lowest concentration showing complete growth inhibition after 48 h at 35 degrees C., 48 h at 25 degrees C. […]

[3] = tested on: C. krusei ATCC 6258; experiment: Antifungal MIC/MLC (broth microdilution); format: cell-based, Candida krusei
Protocol: as §1, §2

[4] = tested on: Mucor spp.; experiment: Antifungal MIC/MLC (broth microdilution); format: cell-based
Protocol: as §1
(§3) Antifungal activity was evaluated by determining the MIC of compound 1 by the broth microdilution method, according to CLSI guidelines (reference documents M27-A3 for yeasts and M38-A2 for filamentous fungi). Briefly, cell or spore suspensions were prepared in RPMI-1640 broth medium (Biochrom, Berlin, Germany) buffered with 3-(N-morpholino)propane sulfonic acid (MOPS) (Sigma-Aldrich, St. Louis, MO, USA) (henceforth referred to as RPMI) from fresh cultures of the different strains of fungi. For yeasts, the inoculum was adjusted to 0.5-2.5×10^3 CFU/mL. For filamentous fungi, the inoculum was adjusted to 1-3×10^3 CFU/mL for dermatophytes, and 0.4-5×10^4 CFU/mL for all other strains. […] Sterility and growth controls were included in each assay. The 96-well flat-bottomed untreated polystyrene microtiter plates which were incubated for 48 h at 35° C., with the exception of Lichetheimia spp. which was incubated at 25° C. for 48 h, and the dermatophyte strains, which incubated for 5-7 days at 25° C. […] Voriconazole (kindly provided by Pfizer Ldt., UK) MIC for C. krusei ATCC 6258 was used as quality control and the assays were validated when the results obtained were within the recommended limits. The minimal lethal concentration (MLC) was determined by spreading 20 μL of culture collected from wells showing no visible growth on SDA plates. The MLC was determined as the lowest concentration showing complete growth inhibition after 48 h at 35 degrees C., 48 h at 25 degrees C. (Lichetheimia spp.) or 5-7 days at 25 degrees C. (dermatophytes). At least two independent assays were performed for all tested strains.

[5] = tested on: Fusarium oxysporum FF115; experiment: Antifungal MIC/MLC (broth microdilution); format: cell-based
Protocol: as §1, §3

[6] = tested on: T. mentagrophytes FF7; experiment: Antifungal MIC/MLC (broth microdilution); format: cell-based
Protocol: as §1, §3

[7] = tested on: Aspergillus fumigatus ATCC 204305; experiment: Antifungal MIC/MLC (broth microdilution); format: cell-based
Protocol: as §1, §3

[8] = C. krusei ATCC 6258, intrinsically resistant to fluconazole
[9] = Mucor spp., intrinsically resistant to fluconazole
[10] = Fusarium oxysporum FF115, intrinsically resistant to fluconazole
[11] = Aspergillus fumigatus ATCC 204305, intrinsically resistant to fluconazole

SMILES	mitochondrial activity (MTT reduction) vs untreated control ([1]; 8 μg/mL)	MLC [2]	MIC ([2]; Aspergillus fumigatus, read-out: MIC)	MLC [3, 8]	MIC ([3]; Pichia kudriavzevii, ATCC6258, read-out: MIC)	MLC [4, 9]	MIC ([4]; Mucor, read-out: MIC)	MLC [5, 10]	MIC ([5]; Fusarium oxysporum, FF115, read-out: MIC)	MLC [6]	MIC ([6]; Trichophyton mentagrophytes, read-out: MIC)	MLC [7, 11]	MIC ([7]; Aspergillus fumigatus, ATCC204305, read-out: MIC)	mitochondrial activity (MTT reduction) vs untreated control ([1]; 128, 64, and 32 μg/mL (2×MIC, MIC, ½×MIC))	MIC [2]	MIC [3, 8]	MIC [4, 9]	MIC [5, 10]	MIC [6]	MIC [7, 11]
OC(Cn1cncn1)(Cn1cncn1)c1ccc(F)cc1F [Fluconazole, reference compound]	increase (non-significant)	>128 µg/mL	≥ 128 µg/mL	>128 µg/mL	32 µg/mL (≈ 104 µM)	>128 µg/mL	> 128 µg/mL	>128 µg/mL	64 µg/mL (≈ 209 µM)	32 µg/mL (≈ 104 µM)	8 µg/mL (≈ 26.1 µM)	>128 µg/mL	≥ 128 µg/mL							
C[C@H](CCC(=O)NCCN)[C@H]1CC[C@H]2[C@@H]3CC[C@@H]4C[C@H](O)CC[C@]4(C)[C@H]3C[C@H](O)[C@]12C [Compound 1, (R)—N-(2-aminoethyl)-4-((3R,5R,8R,9S,10S,12S,13R,14S,17R)-3,12-dihydroxy-10,13-dimethylhexadecahydro-1H-cyclopenta[a]phenanthren-17-yl) pentanamida]		>128 µg/mL		64 µg/mL (≈ 147 µM)		64 µg/mL (≈ 147 µM)		≥128 µg/mL		64 µg/mL (≈ 147 µM)		≥128 µg/mL		significant reduction of mitochondrial activity	128 µg/mL (≈ 294 µM)	64 µg/mL (≈ 147 µM)	64 µg/mL (≈ 147 µM)	128 µg/mL (≈ 294 µM)	32 µg/mL (≈ 73.6 µM)	128 µg/mL (≈ 294 µM)
